Measurements as given in patent US6897316B2, “Substituted 2-phenyl-4-quinolone-3-carboxylic acid compounds and their use as antitumor agents” (China Medical University, priority 2003, dated 2005).
≈ marks a conversion by molar mass, not a printed value.

What was measured:
[1] = tested on: Renal cancer (CAKI) cell line; test: Activity against HTCL replication, CAKI; format: cell-based, human; conditions: mean ED50
Protocol: Compounds were assayed for in vitro cytotoxicity in a panel of human tumor cell lines at the School of Pharmacy, University of North Carolina at Chapel Hill, according to procedures described previously [Lee, K. H., Lin, Y. M., Wu, T. S., Zhang, D. C., Yamagishi, T., Hayashi, T., Hall, I. H., Chang, J. J., Wu, R. Y., Yang, T. H. The cytotoxic principles of Prunella vulgaris, Psychotria serpens, and Hyptis capitata: Ursolic acid and related derivatives. Planta Med. 1988, 54, 308-11; Boyd, M. R. Status of the National Cancer Institute preclinical antitumor drug discovery screen: implications for selection of new agents for clinical trial. Devita, V. T., Jr. Hellman, S., Rosenberg, S. A., Eds, J. B. Cancer: Principles and Practice of Oncology Update, 1989, 3: pp1-12, Lippincoft: Philadephia; Monks, A., Scudiero, D., Skehan, P., Shoemaker, R., Paull, K., Vistica, D., Hose, C., Langley, J., Cronise, P., Vaigro-Wolff, A., Gray-Goodrich, M., Campbell, H., Mayo, J., Boyd, M. Feasibility of a high-flux anticancer drug screen using a diverse panel of cultured human tumor cell lines. J. Natl. Cancer Inst. 1991, 83, 757-66.] […]

[2] = tested on: panel of 39 human cancer cell lines; test: Growth inhibition against human cancer cell line panel (Sulforhodamine B, 48 h); format: cell-based
Protocol: Compound IX-8 was evaluated growth inhibition activities against a panel of 39 human cancer cell lines including Human breast cancer MDA-MB-231 and the following human cancer cell lines were generously distributed by the National Cancer Institute (Frederick, Md.): lung cancer, NCI-H23, NCI-H226, NCI-H522, NCI-H460, A-549, DMS273 and DMS114; colon cancer, HGC-2998, KM-12, HT-29, HCT-15, and HCT-116; ovarian cancer, OVCAR-3, OVCAR-4, OVCAR-5, OVCAR-8, and SKOV-3; breast cancer, MCF-7; renal cancer, RXF-631L and ACHN; melanoma, LOX-IMVI; brain tumor, U251, SF-295, SF-539, SF-268, SNB-75, and SNB-78, and prostate cancer, DU-145 and PC-3. […]
The details of measuring cell growth inhibition are described elsewhere [Monks, A., Scudiero, D., Skehan, P., Shoemaker, R., Paull, K., Vistica, D., Hose, C., Langley, J., Cronise, P., Vaigro-Wolff, A., Gray-Goodrich, M., Campbell, H., Mayo, J., Boyd, M. Feasibility of a high-flux anticancer drug screen using a diverse panel of cultured human tumor cell lines. […] Then, the cell growth was determined according to the Sulforhodamine B assay, described by Skehan et al [Skehan, P., Storeng, R., Scudiero, D., Monks, A., McMahon, J., Vistica, D., Warren, J. T., Bokesch, H., Kenney, S., Boyd, M. R. New calorimetric cytotoxicity assay for anticancer-drug screening. […]

MG-MID (mean growth midpoint) of log GI50 ([2]; mean over cell line panel, 10^−4 to 10^−8 M): −6.22 M
Compound: COc1ccc2[nH]c(-c3cccc(F)c3)c(C(=O)O)c(=O)c2c1 [IX-8, 3′-Fluoro-6-methoxy-2-phenyl-4-quinolone-3-carboxylic acid]
ED50 CAKI [1]: 10.0 µg/mL (≈ 31.9 µM)
activity against cancer cell line panel in words ([2]; cell line panel): active against most cancer cell lines
